Here are results for 10 molecules from patent publication EP0561850B1, “7-SUBSTITUTED-6-FLUORO-1,4-DIHYDRO-4-OXO-QUINOLINE-3-CARBOXYLIC ACID COMPOUNDS USEFUL AS ANTIBACTERIAL AGENTS” (priority 1990, dated 1992).

As a reminder, the MIC is the smallest concentration in the dilution series that meets the test's criterion for growth inhibition. A higher MIC goes with a need for much substance.

SMILES strings stand for the structures. In brackets after ≈: the same amount, converted by molar mass. Counter-ions that a name gives are not always drawn. A value given as a limit tells only on which side of the number the result lay.

What all share (format): cell-based
Assay [1] relates to Staphylococcus aureus S-127. In words: In vitro antimicrobial activity against aerobes, broth microdilution (NCCLS 1985). As to conditions: S127, read after 16-18 hours. How it is done:
(§1) For aerobic microorganisms, a cation supplemented Mueller Hinton Broth (BBL) was used whereas the Anaerobe Broth MIC (Difco) was used for anaerobic microorganisms. An agar Dilution method was employed for certain aerobic microorganisms using Mueller Hinton II Agar (BBL) and a Cathra multipoint inoculating device which delivered 10^4 cfu/spot of the inoculum on the agar surface. MICs were read after 16-18 hours and 48 hours of incubation in case of microbes growing aerobically and anaerobically respectively.

The test system of assay [2] is Methicillin Resistant S. aureus (MRSAs). In words: In vitro antimicrobial activity against methicillin resistant S. aureus. As to conditions: Staphylococcus aureus; MRSA (6 C.I.), C.I. = Clinical Isolates. The method, then: as §1
In assay [3] the test system is Quinoline Resistant MRSAs (QRMRSAs). Nature of the assay: In vitro antimicrobial activity against quinoline resistant MRSA. The conditions noted are these: Staphylococcus aureus; QRMRSA (8 C.I.), C.I. = Clinical Isolates. The method, then: as §1

For `Nc1c(F)c(N2C[C@@H](N)[C@@H](n3ccnn3)C2)c(F)c2c1c(=O)c(C(=O)O)cn2C1CC1` (relative stereo) [Example 18, 5-Amino-7-[cis-3-amino-4-(1,2,3-triazol-1-yl)-pyrrolidin-1-yl]-1-cyclopropyl-6,8-difluoro-1,4-dihydro-4-oxo-quinoline-3-carboxylic acid], in assay [1], the MIC was found to be 0.5 µg/mL (≈ 1.16 µM).

In assay [1], `Nc1c(F)c(N2C[C@@H](N)[C@@H](n3ccnn3)C2)c(F)c2c1c(=O)c(C(=O)O)cn2-c1ccc(F)cc1F` (relative stereo) [Example 19, 5-Amino-7-[cis-3-amino-4-(1,2,3-triazol-1-yl)-pyrrolidin-1-yl]-1-(2,4-difluorophenyl)-6,8-difluoro-1,4-dihydro-4-oxo-quinoline-3-carboxylic acid] yielded a minimum inhibitory concentration (MIC) of 0.5 µg/mL (≈ 0.993 µM).

In assay [1], `O=C(O)c1cn(-c2ccc(F)cc2)c2c(F)c(N3CCC(n4ccnn4)C3)c(F)cc2c1=O` (stereo not shown) [Example 2, 6,8-Difluoro-1-(4-fluorophenyl)-7-[3-(1,2,3-triazol-1-yl)-pyrrolidin-1-yl]-1,4-dihydro-4-oxo-quinoline-3-carboxylic acid] returned an MIC of at most 0.06 µg/mL.

Take `CCOC(=O)c1cn(C2CC2)c2nc(N3CC[C@H](n4ccnn4)C3)c(F)cc2c1=O` [Example 4, Ethyl 1-cyclopropyl-6-fluoro-7-[3(S)-(1,2,3-triazol-1-yl)pyrrolidin-1-yl]-1,4-dihydro-4-oxo-1,8-naphthyridine-3-carboxylate]: the MIC in assay [1] was at most 0.06 µg/mL.

`O=C(O)c1cn(C2CC2)c2nc(N3CC[C@H](n4ccnn4)C3)c(F)cc2c1=O` [Example 5] gave an MIC in assay [1] of at most 0.03 µg/mL.

With `NC1CN(c2nc3c(cc2F)c(=O)c(C(=O)O)cn3C2CC2)CC1n1ccnn1` (stereo not drawn) [Example 7, 7-[cis-3-Amino-4-(1,2,3-triazol-1-yl)pyrrolidin-1-yl]-1-cyclopropyl-6-fluoro-1,4-dihdyro-4-oxo-1,8-naphthyridine-3-carboxylic acid hydrochloride], the MIC in assay [1] was determined as 0.008 µg/mL.

Molecule `Nc1c(F)c(N2CC[C@@H](n3ccnn3)C2)c(F)c2c1c(=O)c(C(=O)O)cn2C1CC1` [Example 13, 5-Amino-1-cyclopropyl-6,8-difluoro-7-[3R-(1,2,3-triazol-1-yl)-pyrrolidin-1-yl)-1,4-dihydro-4-oxo-quinoline-3-carboxylic acid] returned an MIC in assay [1] of 0.008 µg/mL (≈ 0.0192 µM).

For the molecule `Nc1c(F)c(N2CC[C@H](n3ccnn3)C2)c(F)c2c1c(=O)c(C(=O)O)cn2-c1ccc(F)cc1F` [Example 15], the MIC in assay [2] is 0.008 to 0.015 µg/mL (≈ 0.0164 to 0.0307 µM); in assay [1] it was 0.015 µg/mL (≈ 0.0307 µM); in assay [3], 1 to 16 µg/mL (≈ 2.05 to 32.8 µM).

`Nc1c(F)c(N2CC[C@@H](n3ccnn3)C2)c(F)c2c1c(=O)c(C(=O)O)cn2-c1ccc(F)cc1F` [Example 16, 5-Amino-1-(2,4-difluorophenyl)-6,8-difluoro-7-[3R-(1,2,3-triazol-1-yl)-pyrrolidin-1-yl]-1,4-dihydro-4-oxo-quinoline-3-carboxylic acid]: in assay [1], the MIC was 0.015 µg/mL (≈ 0.0307 µM).

On to `NC1CCN(c2nc3c(cc2F)c(=O)c(C(=O)O)cn3-c2ccc(F)cc2F)C1` (stereo not shown) [Tosufloxacin, reference compound], for which the figures for the minimal inhibitory concentration (MIC) in assay [2] and in assay [3] were 0.015 to 0.03 µg/mL (≈ 0.0371 to 0.0742 µM) and 2 to 16 µg/mL (≈ 4.95 to 39.6 µM), respectively.
